Measurements: patent publication US10183914B2 (BAYER CROPSCIENCE AKTIENGESELLSCHAFT, priority 2014, dated 2019)

Experiments:
Oryza sativa [1] = assay: Pre-emergence herbicidal effect and crop plant compatibility; type: in vivo; conditions: 80 g/ha, 3 weeks
How it was run: (§1)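 Application to covering soil post-sowing: WP or EC, 600–800 L/ha, 0.2% wetting agent. Readout: visual % efficacy after 3 weeks, greenhouse, untreated plants as 0%.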

[2] = test system: Triticum aestivum (spring); assay: as above; type: in vivo; conditions: 80 g/ha, 3 weeks
How it was run: as §1

Zea mays [3] = assay: as above; type: in vivo; conditions: 3 weeks
How it was run: as §1

Alopecurus myosuroides [4] = assay: Pre-emergence herbicidal effect; type: in vivo; conditions: 3 weeks
How it was run: as §1

Amaranthus retroflexus = assay: Pre-emergence herbicidal effect; type: in vivo; conditions: 3 weeks
How it was run: as §1

Avena fatua [5] = assay: Pre-emergence herbicidal effect; type: in vivo; conditions: 320 g/ha, 3 weeks
How it was run: as §1

Cyperus esculentus = assay: Pre-emergence herbicidal effect; type: in vivo; conditions: 3 weeks
How it was run: as §1

Echinochloa crus-galli [6] = assay: Pre-emergence herbicidal effect; type: in vivo; conditions: 3 weeks
How it was run: as §1

Lolium multiflorum [7] = assay: Pre-emergence herbicidal effect; type: in vivo; conditions: 3 weeks
How it was run: as §1

Matricaria inodora = assay: Pre-emergence herbicidal effect; type: in vivo; conditions: 3 weeks
How it was run: as §1

Polygonum convolvulus = assay: Pre-emergence herbicidal effect; type: in vivo; conditions: 3 weeks
How it was run: as §1

Setaria viridis [8] = assay: Pre-emergence herbicidal effect; type: in vivo; conditions: 3 weeks
How it was run: as §1

Stellaria media = assay: Pre-emergence herbicidal effect; type: in vivo; conditions: 3 weeks
How it was run: as §1

Veronica persica = assay: Pre-emergence herbicidal effect; type: in vivo; conditions: 3 weeks
How it was run: as §1

Viola tricolor = assay: Pre-emergence herbicidal effect; type: in vivo; conditions: 3 weeks
How it was run: as §1

Oryza sativa [9] = assay: Post-emergence herbicidal effect and crop plant compatibility; type: in vivo; conditions: visual scoring after about 3 weeks
How it was run: (§2)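 One-leaf-stage seedlings, 2 to 3 weeks old and grown in sandy loam, received an aqueous spray of WP- or EC-formulated compound (600 to 800 L/ha, 0.2% wetting agent) and then stood in the greenhouse for about 3 weeks before visual scoring against controls.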

[10] = test system: Triticum aestivum (spring); assay: as above; type: in vivo; conditions: visual scoring after about 3 weeks
How it was run: as §2

Zea mays [11] = assay: as above; type: in vivo; conditions: visual scoring after about 3 weeks
How it was run: as §2

Avena fatua [12] = assay: Post-emergence herbicidal effect; type: in vivo; conditions: 320 g/ha, visual scoring after about 3 weeks
How it was run: as §2

Echinochloa crus-galli [13] = assay: Post-emergence herbicidal effect; type: in vivo; conditions: visual scoring after about 3 weeks
How it was run: as §2

Ipomoea purpurea = assay: Post-emergence herbicidal effect; type: in vivo; conditions: 320 g/ha (dose by row order of upper half), scoring after about 3 weeks
How it was run: as §2

Lolium multiflorum [14] = assay: Post-emergence herbicidal effect; type: in vivo; conditions: 320 g/ha, visual scoring after about 3 weeks
How it was run: as §2

[15] = logp (HCOOH), physicochemical characterization
Alopecurus myosuroides [16] = assay: Post-emergence herbicidal effect; type: in vivo; conditions: 320 g/ha, visual scoring after about 3 weeks
How it was run: as §2

Setaria viridis [17] = assay: Post-emergence herbicidal effect; type: in vivo; conditions: 320 g/ha (dose by row order of upper half), scoring after about 3 weeks
How it was run: as §2

Row | SMILES | TRZAS herbicidal activity in percent [2] [%] | ZEAMX herbicidal activity in percent (Zea mays [3]; 80 g/ha) [%] | ALOMY herbicidal activity in percent (Alopecurus myosuroides [4]; 80 g/ha) [%] | ALOMY herbicidal activity in percent (Alopecurus myosuroides [4]; 320 g/ha) [%] | AMARE herbicidal activity in percent (Amaranthus retroflexus; 80 g/ha) [%] | AMARE herbicidal activity in percent (Amaranthus retroflexus; 320 g/ha) [%] | CYPES herbicidal activity in percent (Cyperus esculentus; 320 g/ha) [%] | ECHCG herbicidal activity in percent (Echinochloa crus-galli [6]; 80 g/ha) [%] | ECHCG herbicidal activity in percent (Echinochloa crus-galli [6]; 320 g/ha) [%] | LOLMU herbicidal activity in percent (Lolium multiflorum [7]; 80 g/ha) [%] | LOLMU herbicidal activity in percent (Lolium multiflorum [7]; 320 g/ha) [%] | MATIN herbicidal activity in percent (Matricaria inodora; 80 g/ha) [%] | MATIN herbicidal activity in percent (Matricaria inodora; 320 g/ha) [%] | POLCO herbicidal activity in percent (Polygonum convolvulus; 80 g/ha) [%] | POLCO herbicidal activity in percent (Polygonum convolvulus; 320 g/ha) [%] | SETVI herbicidal activity in percent (Setaria viridis [8]; 80 g/ha) [%] | SETVI herbicidal activity in percent (Setaria viridis [8]; 320 g/ha) [%] | STEME herbicidal activity in percent (Stellaria media; 80 g/ha) [%] | STEME herbicidal activity in percent (Stellaria media; 320 g/ha) [%] | VERPE herbicidal activity in percent (Veronica persica; 80 g/ha) [%] | further results
1 | O=C1CCCc2nc(N[C@@H]3CCCc4ccccc43)ncc21 [2.23] | 0 | 0 | 80 | 100 | 100 | 100 | 90 | 80 | 100 | 80 | 100 | 100 | 100 | 100 | 100 | 100 | 100 | 100 | 100 | 100 | ORYSA herbicidal activity in percent (Oryza sativa [1]): 5%; AVEFA herbicidal activity in percent (Avena fatua [5]): 90%; VERPE herbicidal activity in percent (Veronica persica; 320 g/ha): 100%; VIOTR herbicidal activity in percent (Viola tricolor; 80 g/ha): 100%; VIOTR herbicidal activity in percent (Viola tricolor; 320 g/ha): 100%; post-emergence efficacy ORYSA (Oryza sativa [9]; 80 g/ha): 20%; post-emergence efficacy ORYSA (Oryza sativa [9]; 320 g/ha): 20%; post-emergence efficacy TRZAS ([10]; 80 g/ha): 0%; post-emergence efficacy TRZAS ([10]; 320 g/ha): 0%; post-emergence efficacy ZEAMX (Zea mays [11]; 80 g/ha): 0%; post-emergence efficacy AVEFA (Avena fatua [12]): 100%; post-emergence efficacy ECHCG (Echinochloa crus-galli [13]; 320 g/ha): 90%; post-emergence efficacy PHBPU (Ipomoea purpurea): 80%; post-emergence efficacy LOLMU (Lolium multiflorum [14]): 100%
2 | CC(=O)c1cnc(N[C@H]2c3cc(C)ccc3C[C@@H]2C)nc1C [1.26] | 0 | 0 | 90 | 90 | 100 | 100 | 80 | 100 | 100 | 80 | 100 | 100 | 100 | 100 | 100 | 100 | 100 | 100 | 100 | 100 | logp (HCOOH) [15]: solid; logp (HCOOH): 3.56; 1H-NMR (CDCl3, 400 MHZ, δ in ppm): 1.20 (d, 3H,; ZEAMX herbicidal activity in percent (Zea mays [3]; 320 g/ha): 0%; CYPES herbicidal activity in percent (Cyperus esculentus; 80 g/ha): 80%; VERPE herbicidal activity in percent (Veronica persica; 320 g/ha): 100%; VIOTR herbicidal activity in percent (Viola tricolor; 80 g/ha): 100%; VIOTR herbicidal activity in percent (Viola tricolor; 320 g/ha): 100%; post-emergence efficacy ORYSA (Oryza sativa [9]; 80 g/ha): 0%; post-emergence efficacy ORYSA (Oryza sativa [9]; 320 g/ha): 0%; post-emergence efficacy TRZAS ([10]; 80 g/ha): 0%; post-emergence efficacy ZEAMX (Zea mays [11]; 80 g/ha): 0%; post-emergence efficacy ZEAMX (Zea mays [11]; 320 g/ha): 0%; post-emergence efficacy ALOMY (Alopecurus myosuroides [16]): 90%; post-emergence efficacy AVEFA (Avena fatua [12]): 80%; post-emergence efficacy ECHCG (Echinochloa crus-galli [13]; 80 g/ha): 90%; post-emergence efficacy ECHCG (Echinochloa crus-galli [13]; 320 g/ha): 100%; post-emergence efficacy PHBPU (Ipomoea purpurea): 90%; post-emergence efficacy LOLMU (Lolium multiflorum [14]): 80%; post-emergence efficacy SETVI (Setaria viridis [17]): 90%
